{
  "source": "ChEMBL document CHEMBL1201862",
  "about": "“PubChem BioAssay data set” (2004)",
  "key": {"Nonstructural protein 1": {"molecular_target": "Nonstructural protein 1 (Influenza A virus, UniProt Q194T2)", "sequence (Q194T2 whole entry)": "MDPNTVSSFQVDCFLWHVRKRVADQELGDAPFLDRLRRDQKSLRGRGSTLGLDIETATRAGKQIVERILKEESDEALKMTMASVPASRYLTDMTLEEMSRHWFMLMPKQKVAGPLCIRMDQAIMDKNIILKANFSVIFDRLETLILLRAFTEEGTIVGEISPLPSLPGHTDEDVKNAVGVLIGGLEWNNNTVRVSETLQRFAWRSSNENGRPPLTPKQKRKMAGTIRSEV", "assay_type": "functional, Influenza A virus (A/California/07/2009(H1N1))"}, "Fatty acid synthase [1]": {"molecular_target": "T1, Fatty acid synthase (Homo sapiens, UniProt P49327)", "T1 sequence (P49327 whole entry, the tested form may be a part)": "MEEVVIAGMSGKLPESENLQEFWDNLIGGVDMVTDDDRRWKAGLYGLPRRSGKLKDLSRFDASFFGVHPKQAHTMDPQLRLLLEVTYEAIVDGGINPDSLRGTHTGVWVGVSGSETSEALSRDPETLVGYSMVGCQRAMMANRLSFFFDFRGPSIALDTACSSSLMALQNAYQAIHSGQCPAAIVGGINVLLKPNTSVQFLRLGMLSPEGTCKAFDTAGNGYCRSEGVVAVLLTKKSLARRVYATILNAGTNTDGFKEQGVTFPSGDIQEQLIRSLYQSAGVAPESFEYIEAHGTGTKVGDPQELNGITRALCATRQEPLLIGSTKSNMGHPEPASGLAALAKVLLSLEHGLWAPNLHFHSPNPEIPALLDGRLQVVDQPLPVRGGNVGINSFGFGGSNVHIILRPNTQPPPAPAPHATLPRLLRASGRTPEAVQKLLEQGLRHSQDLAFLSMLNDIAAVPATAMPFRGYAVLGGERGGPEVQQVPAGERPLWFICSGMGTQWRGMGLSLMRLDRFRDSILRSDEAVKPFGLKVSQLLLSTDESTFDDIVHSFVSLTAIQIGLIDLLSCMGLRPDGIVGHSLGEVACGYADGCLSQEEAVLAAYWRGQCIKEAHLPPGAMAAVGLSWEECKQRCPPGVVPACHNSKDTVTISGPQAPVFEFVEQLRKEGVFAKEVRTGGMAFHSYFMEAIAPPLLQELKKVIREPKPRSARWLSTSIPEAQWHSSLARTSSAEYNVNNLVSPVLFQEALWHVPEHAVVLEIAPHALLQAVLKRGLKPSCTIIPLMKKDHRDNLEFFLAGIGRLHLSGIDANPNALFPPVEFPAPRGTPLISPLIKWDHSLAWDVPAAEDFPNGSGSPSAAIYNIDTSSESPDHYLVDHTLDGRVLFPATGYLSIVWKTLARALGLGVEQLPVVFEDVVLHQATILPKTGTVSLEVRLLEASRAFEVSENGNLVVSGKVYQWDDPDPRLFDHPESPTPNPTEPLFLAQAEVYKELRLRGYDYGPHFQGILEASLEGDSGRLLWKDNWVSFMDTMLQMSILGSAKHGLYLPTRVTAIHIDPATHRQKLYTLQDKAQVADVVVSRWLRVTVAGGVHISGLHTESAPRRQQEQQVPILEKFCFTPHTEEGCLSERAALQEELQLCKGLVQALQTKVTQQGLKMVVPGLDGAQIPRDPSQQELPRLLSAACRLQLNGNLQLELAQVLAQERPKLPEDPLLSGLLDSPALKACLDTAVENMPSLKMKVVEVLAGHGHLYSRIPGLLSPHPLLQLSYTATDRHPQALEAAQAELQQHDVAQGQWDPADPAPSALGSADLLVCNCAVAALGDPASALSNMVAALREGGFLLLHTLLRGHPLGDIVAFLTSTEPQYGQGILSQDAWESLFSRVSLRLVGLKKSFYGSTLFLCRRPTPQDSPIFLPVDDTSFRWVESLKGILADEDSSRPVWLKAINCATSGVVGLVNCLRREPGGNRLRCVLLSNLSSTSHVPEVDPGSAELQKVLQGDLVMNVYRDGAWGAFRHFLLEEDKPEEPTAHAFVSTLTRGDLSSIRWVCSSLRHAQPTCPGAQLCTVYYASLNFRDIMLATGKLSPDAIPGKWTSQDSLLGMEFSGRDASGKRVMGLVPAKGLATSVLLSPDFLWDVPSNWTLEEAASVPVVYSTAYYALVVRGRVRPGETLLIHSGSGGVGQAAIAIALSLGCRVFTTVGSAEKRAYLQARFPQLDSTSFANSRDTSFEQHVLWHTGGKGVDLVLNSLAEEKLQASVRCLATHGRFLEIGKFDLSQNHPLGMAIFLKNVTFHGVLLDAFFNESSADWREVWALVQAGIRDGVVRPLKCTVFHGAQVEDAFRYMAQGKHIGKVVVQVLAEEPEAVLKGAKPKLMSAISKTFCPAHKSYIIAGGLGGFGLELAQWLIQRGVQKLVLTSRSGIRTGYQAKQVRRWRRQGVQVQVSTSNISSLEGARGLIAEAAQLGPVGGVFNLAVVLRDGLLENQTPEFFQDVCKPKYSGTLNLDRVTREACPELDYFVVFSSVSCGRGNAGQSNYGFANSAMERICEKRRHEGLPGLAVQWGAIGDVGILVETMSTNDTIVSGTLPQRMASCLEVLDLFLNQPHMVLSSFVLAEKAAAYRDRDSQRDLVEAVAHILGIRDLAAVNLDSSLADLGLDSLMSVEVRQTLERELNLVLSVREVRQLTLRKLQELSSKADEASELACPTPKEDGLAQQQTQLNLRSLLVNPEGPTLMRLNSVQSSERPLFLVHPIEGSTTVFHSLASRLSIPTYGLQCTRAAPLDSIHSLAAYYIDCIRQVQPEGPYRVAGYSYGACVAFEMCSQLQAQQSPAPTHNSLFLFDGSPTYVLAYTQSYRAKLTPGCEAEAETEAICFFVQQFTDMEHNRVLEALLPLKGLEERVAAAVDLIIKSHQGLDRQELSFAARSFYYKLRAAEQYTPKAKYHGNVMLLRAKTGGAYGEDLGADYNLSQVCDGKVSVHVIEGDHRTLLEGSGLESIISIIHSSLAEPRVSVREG", "test": "FAS thioesterase domain inhibitors, dose response, biochemical, endpoint fluorescence intensity, uHTS hits (AID 624327);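 also: fluorescence from hydrolysis of an O-methyl fluorescein acyl ester substrate by the enzyme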", "assay_type": "functional"}, "[2]": {"molecular_target": "Tyrosyl-DNA phosphodiesterase 2 (Homo sapiens, UniProt O95551)", "sequence (O95551 whole entry)": "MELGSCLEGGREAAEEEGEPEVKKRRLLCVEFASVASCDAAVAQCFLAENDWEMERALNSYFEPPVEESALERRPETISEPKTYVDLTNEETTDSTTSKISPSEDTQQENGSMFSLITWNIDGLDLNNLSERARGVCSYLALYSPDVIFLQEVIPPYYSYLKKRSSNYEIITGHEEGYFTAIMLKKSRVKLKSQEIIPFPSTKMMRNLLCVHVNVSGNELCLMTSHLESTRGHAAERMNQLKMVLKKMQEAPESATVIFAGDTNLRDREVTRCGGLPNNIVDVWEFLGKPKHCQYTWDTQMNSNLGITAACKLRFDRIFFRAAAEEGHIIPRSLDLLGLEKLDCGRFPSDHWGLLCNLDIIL", "test": "human TDP2 enzyme inhibitors, dose response, biochemical, epi absorbance, IC50 (AID 743297)"}, "Fatty acid synthase [3]": {"molecular_target": "T1, Fatty acid synthase", "test": "FAS thioesterase domain inhibitors, dose response, biochemical, kinetic fluorescence intensity (AID 624326);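 also: rate of fluorescence rise from hydrolysis of a fluorogenic O-methyl fluorescein ester substrate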", "assay_type": "functional"}, "[4]": {"test": "HeLa cell cytotoxicity, dose response, cytotoxicity control for MgcRacGAP inhibitor project (AID 624300)", "assay_type": "functional"}, "[5]": {"test": "human group III sPLA2 inhibitors, dose response, biochemical, QFRET, IC50 (AID 743457);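 also: green fluorescence rise as the enzyme cleaves BODIPY PC-A2 in liposomes; potency for inhibition of the enzyme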"}, "[6]": {"molecular_target": "T2, Rac GTPase-activating protein 1 (Homo sapiens, UniProt Q9H0H5)", "T2 sequence (Q9H0H5 whole entry)": "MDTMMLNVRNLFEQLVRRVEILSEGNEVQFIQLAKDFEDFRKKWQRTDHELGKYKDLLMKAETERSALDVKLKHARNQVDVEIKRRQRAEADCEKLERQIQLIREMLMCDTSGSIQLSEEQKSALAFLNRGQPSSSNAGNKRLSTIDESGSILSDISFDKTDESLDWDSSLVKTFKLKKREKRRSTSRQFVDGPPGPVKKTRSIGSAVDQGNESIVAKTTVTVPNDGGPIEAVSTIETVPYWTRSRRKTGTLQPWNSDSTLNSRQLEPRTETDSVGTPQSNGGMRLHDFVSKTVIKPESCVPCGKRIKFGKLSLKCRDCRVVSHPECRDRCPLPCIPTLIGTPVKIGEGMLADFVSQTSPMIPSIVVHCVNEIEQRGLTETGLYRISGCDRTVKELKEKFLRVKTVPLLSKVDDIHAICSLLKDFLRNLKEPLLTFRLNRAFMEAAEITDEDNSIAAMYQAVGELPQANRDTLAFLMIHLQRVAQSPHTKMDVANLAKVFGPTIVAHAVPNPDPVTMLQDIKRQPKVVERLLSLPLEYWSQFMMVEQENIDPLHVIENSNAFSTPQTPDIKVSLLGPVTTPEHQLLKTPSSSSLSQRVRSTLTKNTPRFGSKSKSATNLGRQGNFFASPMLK", "test": "MgcRacGAP GTPase-activating activity inhibitors, confirmation, biochemical, ADP Hunter fluorescence, primary and confirmatory (AID 624330)", "assay_type": "functional"}, "[7]": {"molecular_target": "Fructose-bisphosphate aldolase (Mycobacterium tuberculosis, UniProt P9WQA3)", "sequence (P9WQA3 whole entry)": "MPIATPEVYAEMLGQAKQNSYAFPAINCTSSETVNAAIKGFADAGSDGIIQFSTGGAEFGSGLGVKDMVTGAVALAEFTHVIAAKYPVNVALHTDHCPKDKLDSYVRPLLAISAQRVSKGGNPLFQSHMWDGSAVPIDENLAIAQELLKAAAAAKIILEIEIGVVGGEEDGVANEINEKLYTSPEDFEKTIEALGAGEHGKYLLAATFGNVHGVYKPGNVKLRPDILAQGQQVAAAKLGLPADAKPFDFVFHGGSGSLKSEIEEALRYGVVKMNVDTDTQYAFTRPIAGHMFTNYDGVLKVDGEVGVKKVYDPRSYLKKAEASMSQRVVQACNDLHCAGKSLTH", "test": "Fluorescence-based biochemical high throughput dose response assay for inhibitors of the fructose-bisphosphate aldolase (FBA) of M. tuberculosis.", "assay_type": "functional"}, "[8]": {"test": "IGROV1 ovarian cancer cell cytotoxicity, dose response, PAX8 inhibitor project, plate reader, dry powder samples (AID 743043)", "assay_type": "functional, cell-based", "conditions": "IGROV-1"}, "Paired box protein Pax-8": {"molecular_target": "Paired box protein Pax-8 (Homo sapiens, UniProt Q06710)", "sequence (Q06710 whole entry)": "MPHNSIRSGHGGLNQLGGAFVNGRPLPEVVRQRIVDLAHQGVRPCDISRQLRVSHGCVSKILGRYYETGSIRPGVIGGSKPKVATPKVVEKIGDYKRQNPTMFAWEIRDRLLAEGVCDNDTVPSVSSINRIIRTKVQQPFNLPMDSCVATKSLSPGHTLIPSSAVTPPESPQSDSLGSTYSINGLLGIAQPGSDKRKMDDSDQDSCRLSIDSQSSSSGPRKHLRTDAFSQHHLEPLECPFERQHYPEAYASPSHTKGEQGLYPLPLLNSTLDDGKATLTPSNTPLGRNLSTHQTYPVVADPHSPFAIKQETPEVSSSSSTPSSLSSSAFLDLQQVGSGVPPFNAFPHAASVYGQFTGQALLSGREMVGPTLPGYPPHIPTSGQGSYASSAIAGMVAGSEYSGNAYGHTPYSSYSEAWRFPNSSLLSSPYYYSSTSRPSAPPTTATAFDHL", "test": "inhibitors of PAX8-driven TPO luciferase reporter, dose response, RMG-I cells, cherry-pick (AID 687027);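 also: luciferase reporter driven by Pax8 target thyroperoxidase promoter measured by SteadyGlo luminescence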", "assay_type": "functional, cell-based"}, "[9]": {"test": "NIH:OVCAR-3 ovarian cancer cell cytotoxicity, dose response, PAX8 inhibitor project, plate reader, dry powder samples (AID 743044)", "assay_type": "functional, cell-based"}, "[10]": {"test": "cytotoxicity in OVCAR8 ovarian cancer cells, dose response, PAX8 project, cell-based, plate reader, dry powder samples (AID 743197)", "assay_type": "functional", "conditions": "OVCAR-8"}, "[11]": {"test": "cytotoxicity toward HT-29 cells – cell-based, CellTiter-Glo luminescence, IC50, dose response (AID 1117330)", "assay_type": "functional"}, "[12]": {"molecular_target": "SWI/SNF-related matrix-associated actin-dependent regulator of chromatin subfamily A member 2 (Homo sapiens, UniProt P51531)", "test": "Luminescence-based cell-based high throughput dose response assay to identify activators of the function of SWI/SNF related, matrix associated, actin dependent regulator of chromatin, subfamily a, member 2 (SMARCA2, BRM).", "assay_type": "functional"}, "[13]": {"test": "Counterscreen for activators of the function of SWI/SNF related, matrix associated, actin dependent regulator of chromatin, subfamily a, member 2 (SMARCA2, BRM): Luminescence-based cell-based high throughput dose response assay to identify non-selective compounds using the VP16 reporter assay.", "assay_type": "functional"}, "[14]": {"test": "CellTiter-Glo luminescent dose response of DLD-1 viability loss (AID 1117352)", "assay_type": "functional"}, "[15]": {"test": "HeLa 2N DNA content increase, dose response, cell-based, IC50 (AID 1117349)", "assay_type": "functional"}, "[16]": {"test": "Shn3 3'UTR reporter inhibitors, dose response, cell-based, Clone20 osteoblasts, firefly luciferase, cherry-picked (AID 624132)", "assay_type": "functional"}, "[17]": {"test": "SNU-C1 cell viability reduction, dose response, CellTiter-Glo luminescence (AID 1117323)", "assay_type": "functional, cell-based"}, "[18]": {"test": "HepG2 cell cytotoxicity, dose response, cytotoxicity control for Shn3 inhibitor project, CellTiter-Glo, cherry-picked (AID 624134)", "assay_type": "functional, cell-based"}, "[19]": {"test": "HeLa 4N DNA content increase, dose response, cell-based, IC50 (AID 1117351)", "assay_type": "functional"}},
  "note": "The source made the active and inactive calls.",
  "data": [
    {"molecule": "CCOC(=O)c1cc2c(=Cc3ccc(N(C)C)cc3)c3ccccc3n2[n+]1C", "values": [
      {"measurement": "IC50", "setting": "Nonstructural protein 1", "result": "12 µM (active)"},
      {"measurement": "IC50", "setting": "Fatty acid synthase [1]", "result": "12.9 µM (active)"},
      {"measurement": "IC50", "setting": "[2]", "result": "> 128 µM (inactive)"},
      {"measurement": "IC50", "setting": "Fatty acid synthase [3]", "result": "8.42 µM (active)"},
      {"measurement": "CC50", "setting": "[4]", "result": "100 µM (active)"},
      {"measurement": "IC50", "setting": "[5]", "result": "36.1 µM (inactive)"},
      {"measurement": "IC50", "setting": "[6]", "result": "42.5 µM (active)"}
    ]},
    {"molecule": "CN1CCN(C(=O)C2Cc3c(-c4ccc5c(c4)OCO5)ccnc3O2)CC1", "note": "(stereo not given)", "values": [
      {"measurement": "IC50", "setting": "[7]", "result": "1.73 µM (active)"}
    ]},
    {"molecule": "COc1ccc(S(=O)(=O)Nc2ccc3c(c2)C(=O)N([C@H](C)CO)C[C@@H](C)[C@H](CN(C)S(=O)(=O)c2ccc(Cl)cc2)OCCCC[C@H](C)O3)cc1", "values": [
      {"measurement": "AC50", "setting": "[8]", "result": "34.6 µM (active)"},
      {"measurement": "AC50", "setting": "Paired box protein Pax-8", "result": "3.99 µM (active)"},
      {"measurement": "AC50", "setting": "[9]", "result": "33.5 µM (active)"},
      {"measurement": "AC50", "setting": "[10]", "result": "> 70 µM (inactive)"}
    ]},
    {"molecule": "C[C@H]1CCCCO[C@@H](CN(C)Cc2ccccc2)[C@@H](C)CN([C@@H](C)CO)C(=O)c2cc(NC(=O)Nc3ccc(C(F)(F)F)cc3)ccc2O1", "values": [
      {"measurement": "AC50", "setting": "[8]", "result": "48.1 µM (active)"},
      {"measurement": "AC50", "setting": "Paired box protein Pax-8", "result": "11.6 µM (active)"},
      {"measurement": "AC50", "setting": "[9]", "result": "60.4 µM (active)"},
      {"measurement": "AC50", "setting": "[10]", "result": "42 µM (active)"}
    ]},
    {"molecule": "CC(C)n1c(/C=C/[C@@H](O)C[C@@H](O)CC(=O)O)c(-c2ccc(F)cc2)c2ccccc21", "note": "[FLUVASTATIN SODIUM]", "values": [
      {"measurement": "IC50", "setting": "[11]", "result": "> 20 µM (inactive)"},
      {"measurement": "EC50", "setting": "[12]", "result": "> 91.1 µM (inactive)"},
      {"measurement": "EC50", "setting": "[13]", "result": "> 91.1 µM (inactive)"},
      {"measurement": "IC50", "setting": "[14]", "result": "> 20 µM (inactive)"},
      {"measurement": "IC50", "setting": "[15]", "result": "> 10 µM (inactive)"},
      {"measurement": "AC50", "setting": "[16]", "result": "2.4 µM (active)"},
      {"measurement": "IC50", "setting": "[17]", "result": "> 20 µM (inactive)"},
      {"measurement": "AC50", "setting": "[18]", "result": "> 70 µM (inactive)"},
      {"measurement": "IC50", "setting": "[19]", "result": "> 10 µM (inactive)"}
    ]}
  ]
}
